Experimental data: patent US4510338A, “Resorcin derivatives, process for their preparation and pharmaceutical compositions containing them” (priority 1982, dated 1985)

What was measured:
[1] = tested on: ethanolic locomotor activity; experiment: Locomotor activity change by ethanol (Animex BSE motimeter); assay type: in vivo, BALB/c mice; conditions: n=15
Experimental: The change of ethanolic locomotor activity was tested on BALB/c mice of both sexes, weighing 16 to 18 g. each. Groups of 15 were treated with a 40 mg./kg. oral dose of the test compound 60 minutes prior to the administration of placebo and 2 g./kg. ethanol, respectively (i.p.).
The control animals were treated with placebo. The locomotor activity of the animals was measured for two hours with an Animex BSE motimeter.

[2] = tested on: ataxia induced by ethanol; experiment: Ataxia induced by ethanol, rotarod test; assay type: in vivo, BALB/c mice
Experimental: Previously trained and selected BALB/c mice weighing 16 to 18 g. each were treated with a 40 mg./kg. dose of the compound to be tested orally, one hour before the intraperitoneal administration of a 2.5 g./kg. dose of ethanol. The number of the animals remaining on the rods 60, 90 and 120 minutes, resp., after treatment with ethanol was determined. The animals having an intact coordination could stay at the rod as long as 120 minutes. The test was carried out on groups of ten.

[3] = in vivo; conditions: rat, oral, male Hann.-Wistar rats, 14 days observation, probit analysis
Experimental: The acute toxicity of the compounds according to the invention was tested on male Hann.-Wistar rats each weighing 160 to 180 g. The animals were treated with various doses of the test compounds orally, and the dose resulting in the perish of 50% of the animals was calculated by probite analysis from the %-age of the perished animals.

[4] = tested on: ethanolic narcosis; experiment: Ethanolic narcosis period (righting reflex); assay type: in vivo, Hann.-Wistar rats; conditions: for Ethanolic narcosis period (x ± S.E. %), related to control: 1 h before 3.5 g/kg ethanol i.p., n=10
Experimental: The change of ethanolic narcosis period was tested on Hann.-Wistar rats of both sexes weighing 160 to 180 g. each, which were fasted for 16 hours prior to treatment. Groups of ten were treated with various doses of a test compound of the formula (I), orally. One hour after treatment the rats were administered a 3.5 g./kg. dose of ethanol intraperitoneally. The narcosis period of the animals was measured from the elapse of the righting reflex until a spontaneous correction of the body position. The average of the narcosis period and the percentage difference related to the control were calculated. The control group was treated with placebo and a […]. dose of ethanol. Control narcosis period: 99.6±6.55 (x±S.E.) min.

[5] = tested on: ethanolic locomotoric hyperactivity; conditions: mice, Carlsson et al. 1972, cited from earlier work
[6] = tested on: alcoholic intoxication, narcosis; conditions: Sprince et al. 1974; Nagasawa et al. 1975; cited from earlier work

CCC(O)(c1cccc(C(F)(F)F)c1)c1ccc(O)cc1O (stereo not drawn) [A, 4-[1-(3-trifluoromethylphenyl)-1-hydroxypropyl]-resorcin]
Total locomotor motion/2 hours in % of the control ([1]; 40 mg/kg oral + placebo (no ethanol)): 110 ± 10.3% | Total locomotor motion/2 hours in % of the control ([1]; 40 mg/kg oral, 60 min before 2000 mg/kg ethanol i.p.): 98 ± 9.5% | Animals remaining on the rotating rod (%) ([2]; 40 mg/kg oral + 2500 mg/kg ethanol i.p., 60 min): 40% | Animals remaining on the rotating rod (%) ([2]; 40 mg/kg oral + 2500 mg/kg ethanol i.p., 90 min): 60% | Animals remaining on the rotating rod (%) ([2]; 40 mg/kg oral + 2500 mg/kg ethanol i.p., 120 min): 100% | Animals remaining on the rotating rod (%) ([2]; 40 mg/kg oral, no ethanol, 60 min): 100% | Animals remaining on the rotating rod (%) ([2]; 40 mg/kg oral, no ethanol, 90 min): 100% | Animals remaining on the rotating rod (%) ([2]; 40 mg/kg oral, no ethanol, 120 min): 100% | LD50 at 336 h [3]: 1250 mg/kg | Ethanolic narcosis period (x ± S.E. %), related to control ([4]; 0.3 mg/kg orally): 70 ± 11.4% | Ethanolic narcosis period (x ± S.E. %), related to control ([4]; 1.0 mg/kg orally): 60 ± 9.2% | Ethanolic narcosis period (x ± S.E. %), related to control ([4]; 5.0 mg/kg orally): 36 ± 4.0% | Ethanolic narcosis period (x ± S.E. %), related to control ([4]; 20.0 mg/kg orally): 30 ± 5.5%

CC(N)(Cc1ccc(O)cc1)C(=O)O (stereo not drawn) [α-Methyl-para-tyrosine]
Spontaneous locomotoric activity ([5]; same dose range): decreases the spontaneous locomotoric activity | Ethanolic locomotoric hyperactivity [5]: normalizes the ethanolic locomotoric hyperactivity

N[C@@H](CS)C(=O)O [L-cysteine, reference compound]
Alcoholic intoxication, narcosis duration [6]: shortened | Ethanolic narcosis period (x ± S.E. %), related to control ([4]; 500.0 mg/kg orally): 63 ± 4.2% | Dose dependence of effect on ethanolic narcosis period ([4]; rats, oral): dose-dependent, unlike that of L-cysteine
